Source: US10640507B2, “PBD antibacterial agents” (KING'S COLLEGE LONDON, priority 2015, dated 2020)
Values after ≈ are worked out from the molar mass of the structure shown. Like-named read-outs stand apart in the source and are kept apart here.

How the values were obtained:
E. coli gyrase = biological target: T1, E. coli gyrase (Escherichia coli, UniProt P0AES4+P0AES6); assay: Gyrase microplate assay; format: biochemical; details: agent 10-75 μM, FIG. 6
T1 construct: purchased Inspiralis (Norwich, UK) TRG01
Method: (§1) The effect of the antimicrobial agents on gyrase was assessed using E. coli gyrase microplate assay kit (# TRG01) and with S. aureus gyrase microplate assay kit (# SATRG01). The effect of topoisomerase IV using was assessed using E. coli Topo IV microplate assay kit (# TRIV01) and with the S. aureus Topo IV microplate assay kit (# SATRIV01). All of these assay kits were obtained from Inspiralis (Norwich, UK). These assay kits are supplied with the relevant enzyme, substrate and buffers.
(§2) 1. Rehydrate wells with 3×200 μl Wash buffer (diluted from 20× stock with ultra-pure water).
(§3) 2. Immobilise 100 μl of 500 nM TF01 oligo in each well (5 μl of 10 μM TF01 oligo in 95 μl wash buffer).
(§4) 3. Incubate 5 minutes at room temperature.
(§5) 4. Wash off excess oligo with 3×200 μl Wash buffer.
(§6) 5. Incubate 2U (0.4 μl stock) of gyrase with 0.75 μg of relaxed pN01 in a reaction volume of 30 μl at 37° C. for 30 minutes in assay buffer—This is the part agent is added therefore the reaction volume is adjusted to account for this.
(§7) 6. Add 100 μl TF buffer (diluted from 20× stock) to well and incubate for a further 30 minutes at room temperature to allow triplex formation.
(§8) 7. Remove liquid from well and wash with 3×200 μl TF buffer to wash away unbound plasmid.
(§9) 8. Stain with DNA detection dye (diluted to ix with T10 buffer). Add 200 μl per well and incubate for 10-20 minutes at room temperature.
(§10) 9. Mix well and read in fluorescence plate reader Excitation wavelength: 495 nm; Emission wavelength: 537 nm. Use 485/520 filters in plate reader in 231.
(§11) 10. If required 10 μl of sample can be used to run on 1% agarose gel.
(§12) As the reaction volume is 30 μl make concentrations at 30× greater than required so 1 μl of the appropriate concentration can be added to the reaction. For each agent concentrations from a range of 10-75 μM.
(§13) Xmin—minima among all data points
(§14) Xmax—maxima among all data points
(§15) Xi0-1—data point normalised between 0-1

S. aureus gyrase = biological target: T2, S. aureus gyrase (Staphylococcus aureus, UniProt P0A0K8+P20831); assay: Gyrase microplate assay; format: biochemical; details: agent 10-75 μM, FIG. 6
T2 construct: purchased Inspiralis (Norwich, UK) SATRG01
Method: as §1, §2, §3, §4, §5, §6, §7, §8, §9, §10, §11, §12, §13, §14, §15

A. baumannii NCTC 17978 = assay: General MIC protocol, Gram negative; format: cell-based; details: Acinetobacter baumannii, NCTC17978
Summary of the method: (§16)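 Compound was prepared at 64 μg/ml in water, serially halved across the plate and diluted twofold again by added inoculum. Final bacterial density was 5×10^5/ml in TSB. After 20 hours at 37° C, wells were scored for growth by OD600.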

K. pneumonia KP16 = assay: General MIC protocol, Gram negative; format: cell-based; details: Klebsiella pneumoniae, KP16
Summary of the method: as §16

K. pneumonia M6 = assay: General MIC protocol, Gram negative; format: cell-based; details: Klebsiella pneumoniae; KP-M6
Summary of the method: as §16

K. pneumonia NCTC 13438 = assay: General MIC protocol, Gram negative; format: cell-based; details: Klebsiella pneumoniae, NCTC13438
Summary of the method: as §16

P. aeruginosa NCTC 13437 = assay: General MIC protocol, Gram negative; format: cell-based
Summary of the method: as §16

NCTC 13368 = assay: Effect of efflux pump inhibitors (EPIs) on MIC; format: cell-based, K. pneumoniae; details: for MIC: Klebsiella pneumoniae; for +PABN MIC: PABN at 25 μg/ml
Method: (§17) 1. Grow up cultures of bacterial strains to be tested overnight.
(§18) 2. Dilute down overnight cultures to concentration of 1×10^6 bacteria/ml (OD0.01) in Tryptic soy broth (TSB).
(§19) 3. Add 100 μl of TSB media to column 2-column 12 in 96 well plate (keeping column 1 clear).
(§20) 4. Make up compound to a concentration of 64 μg/ml in water.
(§21) 5. Add 100 μl of antibiotic solution to the 1st and 2nd columns.
(§22) 6. Using a multichannel pipette take 100 μl from the 2nd column wells and pipette into 3rd column wells and repeat down the 96 well plate (remember to include controls i.e. uninfected media and media with no antibiotic).
(§23) 7. To each well (except uninfected control row H) add 50 μl/well of EPI at 4× final concentration in TSB.
(§24) 9. In wells used to test the effect of the EPI carbonyl cyanide 3-chlorophenylhydrazone (CCCP) the CCCP is added at 10 μg/ml final concentration.
(§25) 10. In wells used to test the effect of the EPI phenylalanine-arginine β-naphthylamide (PABN) the PABN is added at 25 μg/ml final concentration.
(§26) 11. In wells used to test the effect of the PABN+Mg, the PABN is added at 25 μg/ml final concentration, with 1 mM MgSO4 in TSB.
(§27) 12. Wrap plate with parafilm to prevent evaporation.
(§28) 13. Leave at desired temperature (37° C. unless specified elsewhere) for 20 hours.
(§29) 14. Next day check plates for growth and measure optical density (i.e. absorbance) at a wavelength of 600 nm (OD600).
(§30) Compound KMR-14-33 was tested against a range of bacterial species using the above protocol. Compound PP-A148 was also tested against a more limited range of bacterial species using the above protocol. For KMR-14-33 measurements were carried out for the compound alone, for the compound plus CCCP, for the compound plus PABN and for the compound plus PABN and plus Mg. For PP-A148 measurements were carried out for the compound alone and for the compound plus PABN.

AYE = assay: Effect of efflux pump inhibitors (EPIs) on MIC; format: cell-based, A. bauamnnii; details: for +PABN MIC: PABN at 25 μg/ml
Method: as §17, §18, §19, §20, §21, §22, §23, §24, §25, §26, §27, §28, §29, §30

NCTC 17978 = assay: Effect of efflux pump inhibitors (EPIs) on MIC; format: cell-based, A. bauamnnii; details: for +PABN MIC: PABN at 25 μg/ml
Method: as §17, §18, §19, §20, §21, §22, §23, §24, §25, §26, §27, §28, §29, §30

[1] = Pseudomonas aeruginosa, NCTC13437
[2] = NCTC13368, read-out: Control with no EPI MIC
[3] = read-out: Control with no EPI MIC
[4] = no EPI, read-out: Control with no EPI MIC

T1 sequence (P0AES4 whole entry, one chain of several): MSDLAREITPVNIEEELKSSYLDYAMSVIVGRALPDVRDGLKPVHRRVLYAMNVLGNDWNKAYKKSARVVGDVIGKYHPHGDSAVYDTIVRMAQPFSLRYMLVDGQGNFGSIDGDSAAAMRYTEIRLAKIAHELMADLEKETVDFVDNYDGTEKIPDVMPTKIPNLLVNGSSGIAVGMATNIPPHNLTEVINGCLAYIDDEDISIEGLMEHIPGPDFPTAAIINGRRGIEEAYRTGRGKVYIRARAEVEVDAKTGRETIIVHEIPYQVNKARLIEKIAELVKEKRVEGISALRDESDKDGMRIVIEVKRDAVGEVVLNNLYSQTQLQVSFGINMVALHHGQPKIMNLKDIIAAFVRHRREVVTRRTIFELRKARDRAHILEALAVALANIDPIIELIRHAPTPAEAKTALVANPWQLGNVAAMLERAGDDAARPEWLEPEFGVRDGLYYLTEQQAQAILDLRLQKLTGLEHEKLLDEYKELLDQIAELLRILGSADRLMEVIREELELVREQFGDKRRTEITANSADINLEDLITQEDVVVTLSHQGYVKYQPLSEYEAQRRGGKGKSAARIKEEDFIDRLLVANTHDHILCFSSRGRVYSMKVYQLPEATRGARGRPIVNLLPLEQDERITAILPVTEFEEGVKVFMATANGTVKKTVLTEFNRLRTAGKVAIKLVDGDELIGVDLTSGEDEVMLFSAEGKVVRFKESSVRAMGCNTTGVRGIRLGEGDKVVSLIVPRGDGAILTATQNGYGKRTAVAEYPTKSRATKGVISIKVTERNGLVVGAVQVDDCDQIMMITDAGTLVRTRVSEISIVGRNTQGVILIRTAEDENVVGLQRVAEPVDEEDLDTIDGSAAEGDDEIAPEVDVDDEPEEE
T2 sequence (P0A0K8 whole entry): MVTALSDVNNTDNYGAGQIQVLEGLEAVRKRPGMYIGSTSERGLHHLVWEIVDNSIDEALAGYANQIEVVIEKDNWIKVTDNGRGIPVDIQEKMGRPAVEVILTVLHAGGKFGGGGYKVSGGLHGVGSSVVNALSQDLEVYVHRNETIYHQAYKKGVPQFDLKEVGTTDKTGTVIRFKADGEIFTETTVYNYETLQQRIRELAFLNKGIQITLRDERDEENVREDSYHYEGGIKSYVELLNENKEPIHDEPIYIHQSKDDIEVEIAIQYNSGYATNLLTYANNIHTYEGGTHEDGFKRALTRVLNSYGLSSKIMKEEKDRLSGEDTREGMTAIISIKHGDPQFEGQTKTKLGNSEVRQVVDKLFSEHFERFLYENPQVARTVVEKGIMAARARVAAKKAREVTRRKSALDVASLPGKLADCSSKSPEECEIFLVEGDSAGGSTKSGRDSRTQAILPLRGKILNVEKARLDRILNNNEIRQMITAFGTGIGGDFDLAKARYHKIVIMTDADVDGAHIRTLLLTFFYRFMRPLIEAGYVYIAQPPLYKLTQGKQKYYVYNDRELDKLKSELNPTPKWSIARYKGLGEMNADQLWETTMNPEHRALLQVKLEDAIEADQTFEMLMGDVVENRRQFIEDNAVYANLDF
T2 sequence (P20831 whole entry): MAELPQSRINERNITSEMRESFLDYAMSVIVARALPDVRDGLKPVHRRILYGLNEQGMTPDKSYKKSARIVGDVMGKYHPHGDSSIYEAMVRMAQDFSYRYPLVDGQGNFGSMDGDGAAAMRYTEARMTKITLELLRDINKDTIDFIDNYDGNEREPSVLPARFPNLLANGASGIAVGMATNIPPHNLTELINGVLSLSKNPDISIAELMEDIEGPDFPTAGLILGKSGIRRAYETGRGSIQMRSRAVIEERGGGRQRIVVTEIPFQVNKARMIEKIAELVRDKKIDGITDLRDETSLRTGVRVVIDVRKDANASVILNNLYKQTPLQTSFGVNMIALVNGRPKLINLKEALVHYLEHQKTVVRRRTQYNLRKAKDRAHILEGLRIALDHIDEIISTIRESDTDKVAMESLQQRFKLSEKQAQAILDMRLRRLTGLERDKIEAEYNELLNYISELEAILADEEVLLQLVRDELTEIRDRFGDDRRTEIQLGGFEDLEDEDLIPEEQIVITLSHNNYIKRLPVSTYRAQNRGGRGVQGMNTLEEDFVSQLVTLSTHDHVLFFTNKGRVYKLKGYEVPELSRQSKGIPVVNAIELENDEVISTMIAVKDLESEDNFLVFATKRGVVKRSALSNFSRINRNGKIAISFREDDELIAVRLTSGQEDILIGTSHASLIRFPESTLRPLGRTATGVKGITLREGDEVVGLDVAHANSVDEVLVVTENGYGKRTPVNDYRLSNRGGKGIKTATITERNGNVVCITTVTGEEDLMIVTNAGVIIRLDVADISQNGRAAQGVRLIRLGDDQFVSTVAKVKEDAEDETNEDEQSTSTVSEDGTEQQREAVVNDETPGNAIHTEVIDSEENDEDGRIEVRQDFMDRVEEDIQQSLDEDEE

Compound	effect on gyrase (E. coli gyrase)	effect on gyrase (S. aureus gyrase)	MIC (A. baumannii NCTC 17978) [µg/mL]	MIC (K. pneumonia KP16) [µg/mL]	MIC (K. pneumonia M6) [µg/mL]	MIC (K. pneumonia NCTC 13438) [µg/mL]	MIC (P. aeruginosa NCTC 13437; NCTC 13437, KMR-14-33 alone) [µg/mL]	MIC (P. aeruginosa NCTC 13437; [1]) [µg/mL]	MIC (NCTC 13368; NCTC13368, read-out: +CCCP MIC) [µg/mL]	MIC (NCTC 13368; [2]) [µg/mL]	+PABN MIC (NCTC 13368; NCTC 13368) [µg/mL]	+PABN + Mg MIC (NCTC 13368; NCTC 13368, PABN at 25 μg/ml with 1 mM MgSO4) [µg/mL]	+PABN MIC (AYE; AYE) [µg/mL]	+PABN + Mg MIC (AYE; AYE, PABN at 25 μg/ml with 1 mM MgSO4) [µg/mL]	MIC (AYE; read-out: +CCCP MIC) [µg/mL]	MIC (AYE; [3]) [µg/mL]	MIC (NCTC 17978; CCCP at 10 μg/ml, read-out: +CCCP MIC) [µg/mL]	+PABN MIC (NCTC 17978) [µg/mL]	+PABN + Mg MIC (NCTC 17978; PABN at 25 μg/ml with 1 mM MgSO4) [µg/mL]	MIC (NCTC 17978; [4]) [µg/mL]
O=C(O)c1cn(C2CC2)c2cc(N3CCNCC3)c(F)cc2c1=O [CIP, ciprofloxacin, reference compound]	inhibits	inhibits																		
COc1cc2c(cc1OCCCC(=O)Nc1cc(C(=O)Nc3ccc4sc(C(=O)N(C)C)cc4c3)n(C)c1)N=C[C@@H]1CCCN1C2=O [KMR-14-33, (S)—N-(2-(dimethylcarbamoyl)benzo[b]thiophen-5-yl)-4-(4-((7-methoxy-5-oxo-2,3,5,11a-tetrahydro-1H-benzo[e]pyrrolo[1,2-a][1,4]-diazepin-8-yl)oxy)butanamido)-1-methyl-1H-pyrrole-2-carboxamide]			0.5 (≈ 0.761 µM)	0.25 (≈ 0.381 µM)	1 (≈ 1.52 µM)	0.5 (≈ 0.761 µM)	32 (≈ 48.7 µM)	> 32	2 (≈ 3.05 µM)	2 (≈ 3.05 µM)	1	0.5	0.125	0.25	0.125 (≈ 0.19 µM)	1 (≈ 1.52 µM)	0.25 (≈ 0.381 µM)	0.06	0.25	0.5 (≈ 0.761 µM)
COc1cc2c(cc1OCCCC(=O)Nc1cc(C(=O)Nc3ccc4oc(C(=O)N5CCSCC5)cc4c3)n(C)c1)N=C[C@@H]1CCCN1C2=O [PP-A148, (S)-4-(4-((7-methoxy-5-oxo-2,3,5,11a-tetrahydro-1H-benzo-[e]pyrrolo[1,2-a][1,4]diazepin-8-yl)oxy)butanamido)-1-methyl-N-(2-(thiomorpholine-4-carbonyl)benzofuran-5-yl)-1H-pyrrole-2-carboxamide]	inhibits	inhibits	2 (≈ 2.86 µM)	0.25 to 0.5 (≈ 0.358 to 0.716 µM)	0.25 to 0.5 (≈ 0.358 to 0.716 µM)	4 to 8 (≈ 5.72 to 11.4 µM)		16 (≈ 22.9 µM)		16 to 32 (≈ 22.9 to 45.8 µM)	2 to 8		0.125 to 0.5			2 (≈ 2.86 µM)		0.125 to 0.5		2 (≈ 2.86 µM)
